The target in this experiment is T1, human CTPS1 (Homo sapiens, UniProt P17812).
T1 construct: purchased Proteros biostructures GmbH
T1 sequence (P17812 1-591): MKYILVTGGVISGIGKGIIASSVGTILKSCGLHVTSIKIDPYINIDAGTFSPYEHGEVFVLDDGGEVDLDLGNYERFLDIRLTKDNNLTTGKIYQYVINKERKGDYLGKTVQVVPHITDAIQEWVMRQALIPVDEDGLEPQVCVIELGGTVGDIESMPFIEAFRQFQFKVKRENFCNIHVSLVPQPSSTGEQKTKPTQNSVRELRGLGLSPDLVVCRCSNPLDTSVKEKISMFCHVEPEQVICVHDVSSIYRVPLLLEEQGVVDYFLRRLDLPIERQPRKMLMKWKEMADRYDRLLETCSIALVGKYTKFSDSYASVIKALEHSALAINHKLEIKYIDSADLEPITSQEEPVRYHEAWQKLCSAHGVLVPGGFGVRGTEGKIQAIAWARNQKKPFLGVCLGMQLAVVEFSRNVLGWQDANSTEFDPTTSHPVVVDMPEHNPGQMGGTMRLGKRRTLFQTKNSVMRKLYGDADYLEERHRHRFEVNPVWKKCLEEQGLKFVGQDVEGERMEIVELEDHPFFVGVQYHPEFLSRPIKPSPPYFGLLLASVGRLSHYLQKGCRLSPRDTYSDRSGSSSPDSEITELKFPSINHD
Put plainly: Human CTPS1 enzyme inhibition (ADP-Glo Max assay). It counts as biochemical. The following applies: read-out: CTPS1 (Human CTPS1 Enzyme Inhibition data grouped by potency range). The essentials:
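ADP-Glo Max luminescence detection of ATP-to-ADP conversion by the enzyme, in 50 mM Tris, 10 mM MgCl2, 0.01% Tween-20, pH 8.0, with 2 mM L-cysteine added fresh. Enzyme preincubated with compound 10 minutes at 25° C. Percentage inhibition calculated per compound concentration.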

The mark [1] stands for this setting: Table 18, additional potency data, 25° C.

Results on 34 compounds are retold here after patent US11655246B2, “Aminothiazole compounds as inhibitors of CTPS1” (STEP PHARMA S.A.S., priority 2017, dated 2023).

SMILES strings stand for the structures. Read-outs that look alike come from different tables or passages of the source. Bounds are passed on as bounds.

For the compound `COC(C)(C)c1cncc(-c2ccc(NC(=O)C(C)(C)c3csc(NS(=O)(=O)C4CC4)n3)nc2)n1` [T339, 2-(2-(cyclopropanesulfonamido)thiazol-4-yl)-N-(5-(6-(2-methoxypropan-2-yl)pyrazin-2-yl)pyridin-2-yl)-2-methylpropanamide], under setting [1], the IC50 lay in the range of 1000 to 10000 nM.

For the compound `CCS(=O)(=O)Nc1nc(C(C)(C)C(=O)Nc2ccc(-c3cccnc3)cc2)cs1` [T386, 2-(2-(ethylsulfonamido)thiazol-4-yl)-2-methyl-N-(4-(pyridin-3-yl)phenyl)propanamide], the IC50 under setting [1] was 100 to 1000 nM.

For `CCC(C(=O)Nc1ccc(-c2cncc(C#N)n2)cc1)c1csc(NS(=O)(=O)C2CC2)n1` (stereo not shown) [T79], the IC50 (Table 17, 25° C.) lay within 100 to 1000 nM.

For the compound `CCOc1cncc(-c2ccc(NC(=O)C(C)(C)c3csc(NS(=O)(=O)C4CC4)n3)cc2C)n1` [T371, 2-(2-(cyclopropanesulfonamido)thiazol-4-yl)-N-(4-(6-ethoxypyrazin-2-yl)-3-methylphenyl)-2-methylpropanamide], the IC50 under setting [1] was < 100 nM.

On to `CC(C)(C(=O)Nc1ccc(-c2cncc(C(F)(F)F)c2)cn1)c1csc(NS(C)(=O)=O)n1` [T389, 2-methyl-2-(2-(methylsulfonamido)thiazol-4-yl)-N-(5′-(trifluoromethyl)-[3,3′-bipyridin]-6-yl)propanamide], for which the IC50 under setting [1] is 100 to 1000 nM.

As to `COC(C(=O)Nc1ccc(-c2cncc(C(F)(F)F)c2)cc1F)c1csc(NS(=O)(=O)C2CC2)n1` (stereo not shown) [T448], the IC50 under setting [1] was < 100 nM.

In the case of `CCS(=O)(=O)Nc1nc(C(C)(C)C(=O)Nc2ccc(-c3cncc(C(F)(F)F)n3)cn2)cs1` [T381, 2-(2-(ethylsulfonamido)thiazol-4-yl)-2-methyl-N-(5-(6-(trifluoromethyl)pyrazin-2-yl)pyridin-2-yl)propanamide], the IC50 under setting [1] is < 100 nM.

On to `CC(C)(C(=O)Nc1ccc(-c2cncc(O)n2)cc1)c1csc(NS(=O)(=O)C2CC2)n1` [T379, 2-(2-(cyclopropanesulfonamido)thiazol-4-yl)-N-(4-(6-hydroxypyrazin-2-yl)phenyl)-2-methylpropanamide], for which the IC50 under setting [1] fell in the range of 1000 to 10000 nM.

With `CC(C)(C(=O)Nc1ccc(-c2cncc(C(F)(F)F)n2)cc1)c1csc(NS(C)(=O)=O)n1` [T394, 2-methyl-2-(2-(methylsulfonamido)thiazol-4-yl)-N-(4-(6-(trifluoromethyl)pyrazin-2-yl)phenyl)propanamide], the IC50 under setting [1] was < 100 nM.

As to `CN(C)C(C(=O)Nc1ccc(-c2cncc(C(F)(F)F)n2)cc1F)c1csc(NS(=O)(=O)C2CC2)n1` (stereo not shown) [T420, 2-(2-(Cyclopropanesulfonamido)thiazol-4-yl)-2-(dimethylamino)-N-(2-fluoro-4-(6-(trifluoromethyl)pyrazin-2-yl)phenyl)acetamide], the IC50 under setting [1] is < 100 nM.

For `COC(C)(C)c1cncc(-c2ccc(NC(=O)C(C)(C)c3csc(NS(=O)(=O)C4CC4)n3)c(F)c2)n1` [T353, 2-(2-(cyclopropanesulfonamido)thiazol-4-yl)-N-(2-fluoro-4-(6-(2-methoxypropan-2-yl)pyrazin-2-yl)phenyl)-2-methylpropanamide], the IC50 under setting [1] lay within 100 to 1000 nM.

Turning to `O=C(Nc1ccc(-c2cccnc2)cc1)C(F)(F)c1csc(NS(=O)(=O)C2CC2)n1` [T89], the IC50 (Table 17, 25° C.) is < 100 nM.

For the compound `CCC(C(=O)Nc1ccc(-c2cncc(OCC(F)(F)F)n2)cc1)c1csc(NS(=O)(=O)C2CC2)n1` (single isomer, unassigned) [T223], the IC50 (Table 17, 25° C.) is < 100 nM.

Regarding `CC(C)(C(=O)Nc1ccc(-c2cncc(C(F)(F)F)n2)cc1F)c1csc(NS(C)(=O)=O)n1` [T391, N-(2-fluoro-4-(6-(trifluoromethyl)pyrazin-2-yl)phenyl)-2-methyl-2-(2-(methylsulfonamido)thiazol-4-yl)propanamide], under setting [1], the IC50 is < 100 nM.

In the case of `Cc1sc(NS(=O)(=O)C2CC2)nc1C(C)(C)C(=O)Nc1ccc(-c2cncc(C(F)(F)F)n2)cc1` [T17, 2-(2-(cyclopropanesulfonamido)-5-methylthiazol-4-yl)-2-methyl-N-(4-(6-(trifluoromethyl)pyrazin-2-yl)phenyl)propanamide], the IC50 (Table 17, 25° C.) lay within 100 to 1000 nM.

Take `CCOc1cncc(-c2ccc(NC(=O)C(C)(C)c3csc(NS(C)(=O)=O)n3)nc2)n1` [T390, N-(5-(6-ethoxypyrazin-2-yl)pyridin-2-yl)-2-methyl-2-(2-(methylsulfonamido)thiazol-4-yl)propanamide]: the IC50 under setting [1] was < 100 nM.

With `CCC(C(=O)Nc1ccc(-c2cccnc2)cc1)c1csc(NS(=O)(=O)C2CC2)n1` (racemic) [T5, 2-(2-(cyclopropanesulfonamido)thiazol-4-yl)-N-(4-(pyridin-3-yl)phenyl)butanamide], the IC50 (Table 17, 25° C.) was < 100 nM.

On to `CCC(C(=O)Nc1ccc(-c2cncc(OCC(F)(F)F)c2)cc1F)c1csc(NS(=O)(=O)C2CC2)n1` (stereo not shown) [T212], for which the IC50 (Table 17, 25° C.) was < 100 nM.

In the case of `COCCC(C(=O)Nc1ccc(-c2cncc(OC)c2)cn1)c1csc(NS(=O)(=O)C2CC2)n1` (stereo not shown) [T171], the IC50 (Table 17, 25° C.) was < 100 nM.

As for `COc1cc(-c2cncc(Cl)c2)c(F)cc1NC(=O)C(C)(C)c1csc(NS(=O)(=O)C2CC2)n1` [T369, N-(4-(5-chloropyridin-3-yl)-5-fluoro-2-methoxyphenyl)-2-(2-(cyclopropanesulfonamido)thiazol-4-yl)-2-methylpropanamide], the IC50 under setting [1] lay within 100 to 1000 nM.

Take `O=C(Cc1csc(NS(=O)(=O)C2CC2)n1)Nc1ccc(-c2cccnc2)cc1Cl` [T16, N-(2-chloro-4-(pyridin-3-yl)phenyl)-2-(2-(cyclopropanesulfonamido)thiazol-4-yl)acetamide]: the IC50 (Table 17, 25° C.) was in the range of 100 to 1000 nM.

With `CCOc1cncc(-c2ccc(NC(=O)C(C)c3csc(NS(=O)(=O)C4CC4)n3)cc2)c1` (stereo not shown) [T94], the IC50 (Table 17, 25° C.) was < 100 nM.

`CC(C)(C(=O)Nc1ccc(-c2cncc(F)c2)cc1C(F)(F)F)c1csc(NS(=O)(=O)C2CC2)n1` [T345, 2-(2-(cyclopropanesulfonamido)thiazol-4-yl)-N-(4-(5-fluoropyridin-3-yl)-2-(trifluoromethyl)phenyl)-2-methylpropanamide]: under setting [1], the IC50 was < 100 nM.

Turning to `CCOc1cncc(-c2ccc(NC(=O)C(C)(C)c3nc(NS(=O)(=O)C4CC4)sc3Cl)cc2)n1` [T376, 2-(5-chloro-2-(cyclopropanesulfonamido)thiazol-4-yl)-N-(4-(6-ethoxypyrazin-2-yl)phenyl)-2-methylpropanamide], the IC50 under setting [1] was in the range of 100 to 1000 nM.

With `CCOc1cncc(-c2ccc(NC(=O)C(OC)c3csc(NS(=O)(=O)C4CC4)n3)cc2)n1` (single isomer, unassigned) [T331, 2-(2-(cyclopropanesulfonamido)thiazol-4-yl)-N-(4-(6-ethoxypyrazin-2-yl)phenyl)-2-methoxyacetamide], the IC50 under setting [1] is < 100 nM.

As for `COCCC(C(=O)Nc1ccc(-c2cncc(OC)n2)cc1)c1csc(NS(=O)(=O)C2CC2)n1` (stereo not shown) [T190], the IC50 (Table 17, 25° C.) was < 100 nM.

Consider `Cc1cc(NC(=O)C(C)(C)c2csc(NS(=O)(=O)C3CC3)n2)c(F)cc1-c1cncc(Cl)c1` [T352, N-(4-(5-chloropyridin-3-yl)-2-fluoro-5-methylphenyl)-2-(2-(cyclopropanesulfonamido)thiazol-4-yl)-2-methylpropanamide], for which, under setting [1], the IC50 was in the range of 100 to 1000 nM.

Consider `NC(C(=O)Nc1ccc(-c2cncc(C(F)(F)F)n2)cc1F)c1csc(NS(=O)(=O)C2CC2)n1` (stereo not shown) [T418, 2-Amino-2-(2-(cyclopropanesulfonamido)thiazol-4-yl)-N-(2-fluoro-4-(6-(trifluoromethyl)pyrazin-2-yl)phenyl)acetamide], for which the IC50 under setting [1] is 100 to 1000 nM.

For the compound `CC(C)OC(C(=O)Nc1ccc(-c2cncc(Cl)c2)cc1)c1csc(NS(=O)(=O)C2CC2)n1` (stereo not shown) [T58], under “Table 17, 25° C.”, the IC50 was < 100 nM.

As for `CC(C)(C(=O)Nc1ccc(-c2cncc(Cl)c2)cc1C(F)(F)F)c1csc(NS(=O)(=O)C2CC2)n1` [T343, N-(4-(5-chloropyridin-3-yl)-2-(trifluoromethyl)phenyl)-2-(2-(cyclopropanesulfonamido)thiazol-4-yl)-2-methylpropanamide], under setting [1], the IC50 is < 100 nM.

As for `CCC(C(=O)Nc1ccc(-c2cncc(C(F)(F)F)c2)cc1F)c1csc(NS(=O)(=O)C2CC2)n1` (single isomer, unassigned) [T415, 2-(2-(cyclopropanesulfonamido)thiazol-4-yl)-N-(2-fluoro-4-(5-(trifluoromethyl)pyridin-3-yl)phenyl)butanamide], the IC50 under setting [1] was 100 to 1000 nM.

In the case of `CC(C)C(C(=O)Nc1ccc(-c2cnccn2)cc1)c1csc(NS(=O)(=O)C2CC2)n1` (stereo not shown) [T74], the IC50 (Table 17, 25° C.) lay in the range of 100 to 1000 nM.

For the compound `COCCC(C(=O)Nc1ccc(-c2cncc(C(F)(F)F)n2)cc1)c1csc(NS(=O)(=O)C2CC2)n1` (stereo not shown) [T437], the IC50 under setting [1] is < 100 nM.

Consider `CC(C)(C(=O)Nc1ncc(-c2cncc(C#N)c2)cn1)c1csc(NS(=O)(=O)C2CC2)n1` [T20, N-(5-(5-cyanopyridin-3-yl)pyrimidin-2-yl)-2-(2-(cyclopropanesulfonamido)thiazol-4-yl)-2-methylpropanamide], for which the IC50 (Table 17, 25° C.) was 100 to 1000 nM.
